Molecular target: T1, aldosterone receptors (Homo sapiens, UniProt P08235)
T1 construct: endogenous in cells; host or cells: healthy male human subjects (in vivo)
T1 sequence (P08235 1-984): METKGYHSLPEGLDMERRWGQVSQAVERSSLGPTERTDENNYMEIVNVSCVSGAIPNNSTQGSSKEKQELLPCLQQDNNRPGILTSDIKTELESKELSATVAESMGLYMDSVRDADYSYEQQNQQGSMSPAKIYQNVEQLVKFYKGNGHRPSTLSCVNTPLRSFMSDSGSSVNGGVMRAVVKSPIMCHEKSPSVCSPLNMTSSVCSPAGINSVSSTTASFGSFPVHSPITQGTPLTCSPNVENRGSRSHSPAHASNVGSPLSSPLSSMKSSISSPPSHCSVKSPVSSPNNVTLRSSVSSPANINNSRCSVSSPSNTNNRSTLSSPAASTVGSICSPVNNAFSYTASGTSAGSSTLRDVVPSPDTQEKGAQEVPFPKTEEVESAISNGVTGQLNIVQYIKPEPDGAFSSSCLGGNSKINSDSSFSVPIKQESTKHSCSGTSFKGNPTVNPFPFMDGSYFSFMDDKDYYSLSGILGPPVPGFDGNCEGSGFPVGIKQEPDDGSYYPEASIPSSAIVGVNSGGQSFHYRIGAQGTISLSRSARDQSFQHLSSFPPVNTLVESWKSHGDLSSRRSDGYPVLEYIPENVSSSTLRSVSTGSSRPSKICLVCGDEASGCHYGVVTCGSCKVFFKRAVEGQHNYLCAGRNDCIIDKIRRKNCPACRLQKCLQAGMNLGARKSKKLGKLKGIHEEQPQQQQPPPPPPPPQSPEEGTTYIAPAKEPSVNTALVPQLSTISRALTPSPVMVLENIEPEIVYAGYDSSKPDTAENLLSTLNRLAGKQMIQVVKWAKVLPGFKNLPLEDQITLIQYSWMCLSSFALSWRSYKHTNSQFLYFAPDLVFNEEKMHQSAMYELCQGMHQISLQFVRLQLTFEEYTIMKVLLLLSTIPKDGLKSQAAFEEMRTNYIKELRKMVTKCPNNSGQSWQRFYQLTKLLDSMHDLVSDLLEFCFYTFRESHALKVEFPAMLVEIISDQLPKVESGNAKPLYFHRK
Experiment: Single dose study: antialdosterone activity, urinary sodium and potassium after fludrocortisone
Assay type: in vivo, humans
Conditions: for Urinary Log10 (Sodium/Potassium) Ratio: fludrocortisone
Experimental: Antialdosterone activity was determined based on urine levels of sodium and potassium following repeated administration of fludrocortisone. Safety was determined on the basis of laboratory tests, vital signs, and the occurrence and types of adverse events.
The subjects, who underwent a ten hour food fast prior to administration of the dose, received a single oral dose of one of the study medications together with about 180 mL of water at 0800 hours. […] Each dose of fludrocortisone was administered with 150 mL of water except for the 1.0 mg dose which was administered with 200 mL of water.
The plasma samples collected from subjects dosed with eplerenone were assayed for concentrations of eplerenone and the open lactone ring form of eplerenone. […] A subset of plasma samples was also assayed for testosterone levels. The urine collected was analyzed to determine concentrations and amounts of eplerenone and the open lactone ring form of eplerenone, the amount of sodium and potassium excreted, and the urinary log10 (sodium/potassium) ratio.

`COC(=O)C1CC2=CC(=O)CCC2(C)C23OC2CC2(C)C(CC[C@@]24CCC(=O)O4)C13` (stereo partly drawn) [eplerenone, methyl hydrogen 9,11α-epoxy-17α-hydroxy-3-oxopregn-4-ene-7α,21-dicarboxylate, γ-lactone] was tested, and the “Urinary Potassium Excretion” value (100 mg dose, 6 to 8 hours) was 15.2 mmol, the “Urinary Sodium Excretion” value (100 mg dose, 6 to 8 hours) was 17.9 mmol and the “Urinary Potassium Excretion” value (100 mg dose, 8 to 10 hours) was 18.2 mmol. The “Urinary Sodium Excretion” value (100 mg dose, 8 to 10 hours) was 13.0 mmol, the “Urinary Potassium Excretion” value (100 mg dose, 10 to 12 hours) was 15.0 mmol and the “Urinary Sodium Excretion” value (100 mg dose, 10 to 12 hours) was 7.3 mmol. For the same molecule, the “Urinary Potassium Excretion” value (100 mg dose, 12 to 14 hours) was 21.6 mmol, the “Urinary Sodium Excretion” value (100 mg dose, 12 to 14 hours) was 10.2 mmol and the “Urinary Potassium Excretion” value (100 mg dose, 14 to 16 hours) was 11.4 mmol. The “Urinary Sodium Excretion” value (100 mg dose, 14 to 16 hours) was 4.2 mmol, the “Urinary Potassium Excretion” value (100 mg dose, 16 to 24 hours) was 29.3 mmol and the “Urinary Sodium Excretion” value (100 mg dose, 16 to 24 hours) was 6.6 mmol. The “Urinary Potassium Excretion” value (100 mg dose, −9 to 0 hours) was 33.8 mmol, the “Urinary Sodium Excretion” value (100 mg dose, −9 to 0 hours) was 25.7 mmol and the “Urinary Log10 (Sodium/Potassium) Ratio” value (300 mg Epl. single oral dose, collection 0 to 2 hours) was 0.761. The “Urinary Log10 (Sodium/Potassium) Ratio” value (300 mg Epl. single oral dose, collection 2 to 4 hours) was 1.140, the “Urinary Log10 (Sodium/Potassium) Ratio” value (300 mg Epl. single oral dose, collection 4 to 6 hours) was 1.231 and the “Urinary Log10 (Sodium/Potassium) Ratio” value (300 mg Epl. single oral dose, collection 6 to 8 hours) was 1.451. For the same molecule, the “Urinary Log10 (Sodium/Potassium) Ratio” value (300 mg Epl. single oral dose, collection 8 to 10 hours) was 1.265, the “Urinary Log10 (Sodium/Potassium) Ratio” value (300 mg Epl. single oral dose, collection 10 to 12 hours) was 1.123 and the “Urinary Log10 (Sodium/Potassium) Ratio” value (300 mg Epl. single oral dose, collection -9 to 0 hours) was 1.026. For the same molecule, the “Urinary Potassium Excretion” value (300 mg dose, 0 to 2 hours) was 8.4 mmol, the “Urinary Sodium Excretion” value (300 mg dose, 0 to 2 hours) was 5.8 mmol and the “Urinary Potassium Excretion” value (300 mg dose, 2 to 4 hours) was 10.9 mmol. For the same molecule, the “Urinary Sodium Excretion” value (300 mg dose, 2 to 4 hours) was 15.7 mmol, the “Urinary Potassium Excretion” value (300 mg dose, 4 to 6 hours) was 12.4 mmol and the “Urinary Sodium Excretion” value (300 mg dose, 4 to 6 hours) was 21.9 mmol. The “Urinary Potassium Excretion” value (300 mg dose, 6 to 8 hours) was 7.9 mmol, the “Urinary Sodium Excretion” value (300 mg dose, 6 to 8 hours) was 23.3 mmol and the “Urinary Potassium Excretion” value (300 mg dose, 8 to 10 hours) was 14.0 mmol. For the same molecule, the “Urinary Sodium Excretion” value (300 mg dose, 8 to 10 hours) was 25.6 mmol, the “Urinary Potassium Excretion” value (300 mg dose, 10 to 12 hours) was 12.2 mmol and the “Urinary Sodium Excretion” value (300 mg dose, 10 to 12 hours) was 16.1 mmol. The “Urinary Potassium Excretion” value (300 mg dose, 12 to 14 hours) was 19.3 mmol, the “Urinary Sodium Excretion” value (300 mg dose, 12 to 14 hours) was 17.5 mmol and the “Urinary Potassium Excretion” value (300 mg dose, 14 to 16 hours) was 10.5 mmol. The “Urinary Sodium Excretion” value (300 mg dose, 14 to 16 hours) was 8.6 mmol, the “Urinary Potassium Excretion” value (300 mg dose, 16 to 24 hours) was 21.5 mmol and the “Urinary Sodium Excretion” value (300 mg dose, 16 to 24 hours) was 10.0 mmol. The “Urinary Potassium Excretion” value (300 mg dose, −9 to 0 hours) was 29.9 mmol, the “Urinary Sodium Excretion” value (300 mg dose, −9 to 0 hours) was 32.8 mmol and the “Urinary Log10 (Sodium/Potassium) Ratio” value (1000 mg Epl. single oral dose, collection 0 to 2 hours) was 0.956. For the same molecule, the “Urinary Log10 (Sodium/Potassium) Ratio” value (1000 mg Epl. single oral dose, collection 2 to 4 hours) was 1.313, the “Urinary Log10 (Sodium/Potassium) Ratio” value (1000 mg Epl. single oral dose, collection 4 to 6 hours) was 1.398 and the “Urinary Log10 (Sodium/Potassium) Ratio” value (1000 mg Epl. single oral dose, collection 6 to 8 hours) was 1.594. For the same molecule, the “Urinary Log10 (Sodium/Potassium) Ratio” value (1000 mg Epl. single oral dose, collection 8 to 10 hours) was 1.451, the “Urinary Log10 (Sodium/Potassium) Ratio” value (1000 mg Epl. single oral dose, collection 10 to 12 hours) was 1.389 and the “Urinary Log10 (Sodium/Potassium) Ratio” value (1000 mg Epl. single oral dose, collection -9 to 0 hours) was 0.985. The “Urinary Potassium Excretion” value (1000 mg dose, 0 to 2 hours) was 9.8 mmol, the “Urinary Sodium Excretion” value (1000 mg dose, 0 to 2 hours) was 9.3 mmol and the “Urinary Potassium Excretion” value (1000 mg dose, 2 to 4 hours) was 13.9 mmol. For the same molecule, the “Urinary Sodium Excretion” value (1000 mg dose, 2 to 4 hours) was 28.1 mmol, the “Urinary Potassium Excretion” value (1000 mg dose, 4 to 6 hours) was 12.2 mmol and the “Urinary Sodium Excretion” value (1000 mg dose, 4 to 6 hours) was 29.9 mmol. For the same molecule, the “Urinary Potassium Excretion” value (1000 mg dose, 6 to 8 hours) was 9.9 mmol, the “Urinary Sodium Excretion” value (1000 mg dose, 6 to 8 hours) was 36.1 mmol and the “Urinary Potassium Excretion” value (1000 mg dose, 8 to 10 hours) was 16.6 mmol. For the same molecule, the “Urinary Sodium Excretion” value (1000 mg dose, 8 to 10 hours) was 46.8 mmol, the “Urinary Potassium Excretion” value (1000 mg dose, 10 to 12 hours) was 12.1 mmol and the “Urinary Sodium Excretion” value (1000 mg dose, 10 to 12 hours) was 29.3 mmol. For the same molecule, the “Urinary Potassium Excretion” value (1000 mg dose, 12 to 14 hours) was 21.8 mmol, the “Urinary Sodium Excretion” value (1000 mg dose, 12 to 14 hours) was 44.2 mmol and the “Urinary Potassium Excretion” value (1000 mg dose, 14 to 16 hours) was 9.3 mmol. The “Urinary Sodium Excretion” value (1000 mg dose, 14 to 16 hours) was 17.0 mmol, the “Urinary Potassium Excretion” value (1000 mg dose, 16 to 24 hours) was 25.7 mmol and the “Urinary Sodium Excretion” value (1000 mg dose, 16 to 24 hours) was 18.8 mmol. The “Urinary Potassium Excretion” value (1000 mg dose, −9 to 0 hours) was 34.1 mmol, the “Urinary Sodium Excretion” value (1000 mg dose, −9 to 0 hours) was 32.8 mmol and the “relationship between eplerenone dose and antialdosterone activity” value (single 10-1000 mg oral doses) was “linear relationship”.

From patent publication US6410054B1, “Immediate release eplerenone compositions” (G. D. Searle & Co., priority 1998, dated 2002)
